From ChEMBL document CHEMBL3045591, “Imidazole as an anti-epileptic: an overview” (Med Chem Res, 2012) come the findings set out here.

SMILES strings stand for the structures. Some results are limits rather than exact numbers.

The ED50 is the dose at which the effect has come halfway, by size or by number of responders.

Data set [1] is filed under the species Mus musculus. Briefly: Anticonvulsant activity in acute seizure Mus musculus (mouse) model assessed as protection against maximal electroshock-induced seizures. Format: functional. For orientation: Protection in the maximal electroshock model is a classic sign of anticonvulsant action.
The nature of data set [2]: Toxicity in po dosed Rattus norvegicus albino (rat). The note with it: in vivo. In kind it is organism-based.
The species named for data set [3] is Mus musculus. Briefly: Anticonvulsant activity against Mus musculus DBA/2 (mouse) assessed as protection against sound-induced seizure. Format: functional. The note with it: read-out: MED.
The species entered for data set [4] is Mus musculus. Briefly: Anticonvulsant activity in Mus musculus (mouse) assessed as protection against maximal electroshock-induced seizures. In kind it is functional.
Data set [5] relates to Mus musculus. The data set is described as follows: Anticonvulsant activity in Mus musculus (mouse) assessed protection against subcutaneous pentylenetetrazole-induced seizures. Format: functional.
The species named for data set [6] is Mus musculus. Briefly: Anticonvulsant activity in Mus musculus (mouse) assessed as protection against metrazole-induced seizures. Format: functional.
Data set [7] relates to Mus musculus. Briefly: Anticonvulsant activity in Mus musculus (mouse) assessed as protection against maximal electroshock-induced seizures compound co-administered with losartan 50 mg/kg, ip. Format: functional. Conditions: route intraperitoneal.

`CC(C)OC(=O)NC1=NCC(c2ccccc2F)N1C` (stereo not given): the ED50 in the data set filed under Mus musculus [1] was 23 mg/kg.

In turn, `COc1cccc(-c2nc(-c3ccccc3)c(-c3ccccc3)[nH]2)c1` displayed an MTD in data set [2] not above 5000 mg/kg.

For the molecule `O=[N+]([O-])c1cc2nc(O)c(O)nc2nc1-n1ccnc1`, the minimal effective dose in the data set filed under Mus musculus [3] turned out to be 10 mg/kg.

For `CCCOC(=O)NC1=NCC(c2ccccc2F)N1C` (stereo not given), the ED50 in the data set filed under Mus musculus [1] was 23 mg/kg.

`Clc1ccc(-c2nc(Cn3ccnc3)cs2)cc1`: the Activity in the data set filed under Mus musculus [4] and in the data set on Mus musculus [5] was 33% each time.

On to `Cc1ncc(C(=O)Oc2ccccc2)n1C(C)c1ccccc1.O=[N+]([O-])O` (stereo not given), for which the ED50 in the data set filed under Mus musculus [6] stood at 68 mg/kg.

As for `CCCC(CCC)C(=O)O` [VALPROIC ACID], the ED50 was found to be 250 mg/kg in the data set listed under Mus musculus [4] (Mus musculus) and 195 mg/kg with Mus musculus [7].

With `COC(=O)c1cnc(C)n1C(C)c1ccccc1.O=[N+]([O-])O` (stereo not given), the ED50 in the data set filed under Mus musculus [6] came out at 68 mg/kg.
